Data: the supplement of paper PMC8671470

Assays:
[1] = system: THP-1; test: cell viability (% survival relative to DMSO control, bortezomib = 0%); higher = less cytotoxic; settings: 72 h
Summary of the method: (§1)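 In 384-well plates pre-printed with compounds at 1, 10, 100, 1000 or 10000 nM, duplicate wells received cells from 10 AML and 5 CML lines at densities within the linear growth range. The plates stayed at 37 °C with 5% CO2 for 72 h before CellTiter-Glo luminescence was recorded. Each entry is averaged percent survival. Scaling placed vehicle at 100% and a 10 µM positive control at 0%.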

[2] = system: LAMA-84; test: as above; settings: 72 h
Summary of the method: as §1

Row | Compound | cell viability ([1]; 1 nM) [%] | cell viability ([1]; 10 nM) [%] | cell viability ([1]; 100 nM) [%] | cell viability ([1]; 1000 nM) [%] | cell viability ([1]; 10000 nM) [%] | cell viability ([2]; 1 nM) [%] | cell viability ([2]; 10 nM) [%] | cell viability ([2]; 100 nM) [%] | cell viability ([2]; 1000 nM) [%] | cell viability ([2]; 10000 nM) [%]
1 | Clc1ccc2c(c1Cl)CNCC2 | 98.8 | 99.4 | 99.7 | 105 | 90.5 | 98.6 | 105 | 93.7 | 110 | 94.4
2 | O=C(O)C(S)=Cc1c[nH]c2ccc(F)cc12 | 99.1 | 97.6 | 98 | 113 | 101 | 96.9 | 98.2 | 92.6 | 102 | 102
3 | CC(C)Cc1sc(N)nc1-c1ccc(P(=O)(O)O)o1 | 107 | 103 | 98.3 | 104 | 95.5 | 111 | 97.4 | 102 | 94.4 | 80.3
4 | Cl.OC[C@H]1NC[C@@H](O)[C@@H](O)[C@@H]1O [1-Deoxymannojirimycin hydrochloride] | 107 | 91 | 98 | 102 | 91.9 | 99.5 | 93.4 | 102 | 94 | 95.6
5 | CN(C)c1nc(O)c2[nH]cnc2n1 [2-Dimethylamino-6-hydroxypurine] | 95.1 | 94.5 | 86.6 | 97.3 | 97.3 | 101 | 104 | 97.7 | 99.3 | 103
6 | O=C(O)c1cc2sccc2[nH]1 [4H-thieno[3,2-b]pyrrole-5-carboxylic acid] | 105 | 102 | 106 | 97.7 | 105 | 101 | 99.3 | 110 | 95.4 | 105
7 | [N-]=[N+]=CC(=O)CC[C@H](N)C(=O)O [6-Diazo-5-oxo-L-norleucine] | 98.1 | 96.7 | 100 | 102 | 106 | 98.5 | 98.8 | 101 | 97.7 | 100
8 | Sc1ncnc2nc[nH]c12 [6-mercaptopurine] | 98.3 | 106 | 98.1 | 90.6 | 85.2 | 102 | 86.6 | 87.9 | 55.3 | 12.6
9 | O=C(O)CC[C@H](NC(=O)c1ccc([N+](=O)[O-])cc1)C(=O)O [(S)-2-(4-Nitrobenzamido)pentanedioic acid] | 102 | 107 | 93.7 | 105 | 95.5 | 98.8 | 77.2 | 99.6 | 103 | 100
10 | O=C1Nc2ccccc2/C1=C\NCCc1ccc(O)c(O)c1 [AC1NZZMF] | 108 | 103 | 100 | 108 | 79.9 | 107 | 108 | 102 | 101 | 107
11 | Cc1ccc(S(=O)(=O)NC2c3ccccc3Oc3ccccc32)cc1 [AH-7614] | 96.9 | 96.7 | 99 | 96.7 | 100 | 93.7 | 98.8 | 101 | 95.5 | 105
12 | C[C@]12CC[C@H](O)CC1=CC[C@@H]1[C@@H]2CC[C@]2(C)C(c3cccnc3)=CC[C@@H]12 [Abiraterone] | 99.4 | 102 | 104 | 113 | 108 | 105 | 106 | 94.1 | 102 | 108
13 | O=C(COc1ccc(C(=O)c2ccccc2)cc1)NC1CCN(Cc2ccccc2)CC1 [AdipoRon] | 96.2 | 98.8 | 102 | 91.6 | 104 | 96.9 | 102 | 93.8 | 96.7 | 61.1
14 | CCOC(=O)[C@H]1O[C@@H]1C(=O)N[C@@H](CC(C)C)C(=O)NCCC(C)C [Aloxistatin] | 104 | 110 | 96.9 | 95.2 | 95.7 | 93.7 | 101 | 101 | 101 | 98.6
15 | N[C@](CCCCB(O)O)(CCN1CCCCC1)C(=O)O [Arginase inhibitor 1] | 105 | 88.6 | 101 | 99 | 102 | 99.9 | 102 | 96.1 | 102 | 88.9
16 | Cc1noc2c1-c1ccccc1C(c1ccc(Cl)cc1)=N[C@H]2CC(N)=O [CPI-0610] | 103 | 95.9 | 88.6 | 51.1 | 40.2 | 107 | 92.3 | 98.4 | 67.2 | 33.6
17 | Nc1ccn([C@@H]2O[C@H](CO)[C@@H](O)[C@@H]2O)c(=O)n1 [Cytarabine] | 103 | 104 | 89.9 | 91.7 | 23.8 | 93 | 80.3 | 38.5 | 12.9 | 5
18 | CCOc1ccc(Cc2cc([C@@H]3O[C@H](CO)[C@@H](O)[C@H](O)[C@H]3O)ccc2Cl)cc1 [Dapagliflozin] | 88.4 | 100 | 86.4 | 101 | 90.1 | 98.1 | 111 | 89.7 | 97.7 | 90.5
19 | CCN(CC)CCN(Cc1ccc(-c2ccc(C(F)(F)F)cc2)cc1)C(=O)Cn1c(SCc2ccc(F)cc2)nc(=O)c2c1CCC2 [Darapladib] | 107 | 98.8 | 100 | 96.3 | -0.44 | 101 | 83.5 | 99.7 | 80.6 | -0.44
20 | O=C(O)C(Cl)Cl [Dichloroacetate] | 100 | 98 | 103 | 95.8 | 102 | 101 | 100 | 98 | 101 | 99.3
21 | O=C1Oc2ccccc2C(=O)C1CC1C(=O)Oc2ccccc2C1=O (stereo not given) [Dicumarol] | 100 | 102 | 96.3 | 103 | 94.2 | 97.3 | 107 | 95.5 | 103 | 105
